In publication PMC8036666, “Biological and Physico-Chemical Characteristics of Arginine-Rich Peptide Gemini Surfactants with Lysine and Cystine Spacers” (International Journal of Molecular Sciences, 2021):
Values after ≈ are worked out from the molar mass of the structure shown. Where a SMILES comes first, the peptide text is derived from it. Bridges are numbered along the chain shown (N, C = ends). Roman numbers before positions name the chains, in order. Side-chain parts run from the residue outwards. [ ]: non-standard residue; d: D form. The star is where a group is joined. Lauroyl = CCCCCCCCCCCC(=O)*; Decanoyl = CCCCCCCCCC(=O)*; Nle = CCCC[C@H](N)C(=O)O; Octanoyl = CCCCCCCC(=O)*

Assays:
[1] = tested on: Acinetobacter baumannii ATCC BAA 1605; details: ATCC BAA 1605, 24 h
Description: (§1) The Acinetobacter baumannii ATCC BAA-1605, Enterococcus faecium ATCC 700221, Escherichia coli ML-35 ATCC 43827, Klebsiella aerogenes ATCC 13048, Klebsiella pneumoniae ATCC 700603, Pseudomonas aeruginosa ATCC 9027, Staphylococcus aureus ATCC 25923, Staphylococcus aureus ATCC 33591, Candida albicans ATCC 10231, Candida glabrata ATCC 15126, strains were acquired from the American Type Culture Collection (ATCC). All the strains were stored at −80 °C in Roti-Store cryo vials and before the tests were transferred into fresh Mueller–Hinton broth (MHB, Biocorp, Warsaw, Poland) for bacteria or RPMI-1640 (Sigma-Aldrich, Steinheim, Germany) for fungi and incubated for 24 h at 37 °C. Then, the cultures were seeded on the Mueller–Hinton agar (BioMaxima, Lublin, Poland) or Sabouraud dextrose agar (SDA, BioMaxima, Lublin, Poland) plates, respectively, and incubated as just mentioned. These agar cultures were used for further microbiological assays. Cell densities for all assays were adjusted spectrophotometrically (Multiskan GO Microplate Spectrophotometer, Thermo Fisher Scientific, Vantaa, Finland) at 600 and 530 nm for bacteria and fungi, respectively.
(§2) The MICs were determined by the broth microdilution method according to the Clinical and Laboratory Standard Institute guidelines. […] The experiments were conducted on 96-well microtiter polystyrene plates (Kartell, Noviglio, Italy). The growth was assessed visually after incubation, and the MIC was assumed as the lowest peptide concentration at which a noticeable growth of microorganisms was inhibited. All experiments were conducted in triplicate.

[2] = tested on: Klebsiella pneumoniae ATCC 700603; details: ATCC 700603, 24 h
Description: as §1, §2

[3] = tested on: Enterococcus faecium ATCC 700221; details: ATCC 700221, 24 h
Description: as §1, §2

[4] = tested on: Pseudomonas aeruginosa ATCC 9027; details: ATCC 9027, 24 h
Description: as §1, §2

[5] = tested on: Staphylococcus aureus ATCC 25923; details: ATCC 25923, 24 h
Description: as §1, §2

[6] = tested on: Klebsiella aerogenes ATCC 13048; details: ATCC 13048, 24 h
Description: as §1, §2

[7] = tested on: Staphylococcus aureus ATCC 33591; format: cell-based; details: ATCC 33591, 24 h
Description: (§3) Biofilm is associated with life-threating infections due to its outstanding resistance to antibiotics. In this study, the antibiofilm characteristics of USCLs and gemini surfactants were evaluated.
(§4) The MBECs were determined as described previously using 96-well polystyrene flat-bottom plates. For this purpose, 24 h cultures of microorganisms were diluted to obtain a final density of 5.0 × 10^5 CFU/mL and 2.0 × 10^5 CFU/mL of bacteria and fungi, respectively. Microorganisms were diluted in MHB or RPMI-1640 with 2% D-glucose (bacteria and fungi, respectively). Briefly, 100 µL of cell suspension was added into the test plates. After 24 h of incubation at 37 °C, the wells were rinsed three times with a PBS (pH 7.4) to remove non-adherent cells. Subsequently, 100 μL of the test compounds in a concentration range (1–512 μg/mL) were added to each well. After 24 h of incubation at 37 °C, 20 μL of a cell viability reagent was added (resazurin, 4 g/L; Sigma Aldrich, St. Louis, MO, USA). The MBEC was read after 1 h. The determined values were recorded as the lowest concentration at which the reduction of resazurin (from blue to pink) was lower or equal to 10 ± 0.5% as compared to the positive (100%) and negative (0%) controls. The reduction was monitored by measuring absorbance at 570 nm (reduced) and 600 nm (oxidized) using a microplate spectrophotometer (Multiskan GO Microplate Spectrophotometer, Thermo Fisher Scientific, Vantaa, Finland). All experiments were conducted in triplicate.

[8] = tested on: Candida glabrata ATCC 15126; format: cell-based; details: ATCC 15126, 24 h
Description: as §3, §4

[9] = tested on: Acinetobacter baumannii ATCC BAA 1605; format: cell-based; details: ATCC BAA 1605, 24 h
Description: as §3, §4

[10] = tested on: Klebsiella pneumoniae ATCC 700603; format: cell-based; details: ATCC 700603, 24 h
Description: as §3, §4

[11] = tested on: Candida albicans ATCC 10231; format: cell-based; details: ATCC 10231, 24 h
Description: as §3, §4

[12] = tested on: Enterococcus faecium ATCC 700221; format: cell-based; details: ATCC 700221, 24 h
Description: as §3, §4

[13] = tested on: Pseudomonas aeruginosa ATCC 9027; format: cell-based; details: ATCC 9027, 24 h
Description: as §3, §4

[14] = tested on: Staphylococcus aureus ATCC 25923; format: cell-based; details: ATCC 25923, 24 h
Description: as §3, §4

[15] = tested on: Klebsiella aerogenes ATCC 13048; format: cell-based; details: ATCC 13048, 24 h
Description: as §3, §4

[16] = Lipopeptide hydrophobicity by RP-HPLC (adjusted retention time); format: physicochemical; details: for Adjusted Retention Time: RP-HPLC, 20–65% acetonitrile over 30 min, indicator of hydrophobicity; for Difference in retention time calculated as tR’C—tR’B: between corresponding surfactants of series C and B
Description: The identity of the purified peptides was confirmed with electrospray ionization mass spectrometry (ESI-MS) in positive ion mode. Results of MS analyses and net charge are attached in Supplementary Materials (Table S1). Peptides’ hydrophobicity was evaluated by analytical reversed-phase high-performance liquid chromatography (RP-HPLC). The critical aggregation concentrations (CACs) of the lipopeptides were determined in unbuffered aqueous solution at 298 K by measuring the surface tension as a function of lipopeptide concentration. The measurements were carried out by the Du Noüy ring method on a K100 tensiometer. The surface tension data were plotted against the logarithm of lipopeptide concentration. CAC was found as the intersection of two lines being linear regression of data below and above CAC.
Lipopeptide hydrophobicity was determined as described previously. To do this, a Waters Alliance e2695 system with a Waters 2998 PDA Detector (software-Empower 3, Waters, Milford, MA, USA) was used. All analyses were carried out on a Waters X-Bridge Shield RP-18 column (3.0 × 100 mm, 3.5 μm particle size, 130 Å pore size). The Shield Technology column with embedded polar groups was used to minimize interactions of unreacted silanol groups with basic lipopeptides. The peptides were dissolved in water (0.1% TFA, v/v) up to a concentration of 1 mg/mL. UV detection at 214 nm was used, and samples (10 μL) were eluted with a linear 20–65% acetonitrile gradient in deionized water over 30 min at 25.0 ± 0.1 °C. The mobile phase flow rate was 0.5 mL/min. Both eluents contained 0.1% (v/v) of TFA. Each peptide sample was analyzed in triplicate. The maximum standard deviation and coefficient of variation were 0.044 and 0.85%, respectively.

| SMILES | MIC Acinetobacter baumannii ATCC BAA 1605 [1] | MIC Klebsiella pneumoniae ATCC 700603 [2] | MIC Enterococcus faecium ATCC 700221 [3] | MIC Pseudomonas aeruginosa ATCC 9027 [4] | MIC Staphylococcus aureus ATCC 25923 [5] | MIC Klebsiella aerogenes ATCC 13048 [6] | MBEC Staphylococcus aureus ATCC 33591 [7] | MBEC Candida glabrata ATCC 15126 [8] | MBEC Acinetobacter baumannii ATCC BAA 1605 [9] | MBEC Klebsiella pneumoniae ATCC 700603 [10] | MBEC Candida albicans ATCC 10231 [11] | MBEC Enterococcus faecium ATCC 700221 [12] | MBEC Pseudomonas aeruginosa ATCC 9027 [13] | MBEC Staphylococcus aureus ATCC 25923 [14] | MBEC Klebsiella aerogenes ATCC 13048 [15] | Adjusted Retention Time [16] | Difference in retention time calculated as tR’C—tR’B [16] |
| --- | --- | --- | --- | --- | --- | --- | --- | --- | --- | --- | --- | --- | --- | --- | --- | --- | --- |
| CCCCCCCCCC(=O)N[C@@H](CCCNC(=N)N)C(=O)N[C@@H](CCCNC(=N)N)C(=O)N[C@@H](CSSC[C@H](NC(=O)[C@H](CCCNC(=N)N)NC(=O)[C@H](CCCNC(=N)N)NC(=O)CCCCCCCCC)C(N)=O)C(N)=O [Compound C2] (I: Decanoyl-Arg-Arg-Cys-NH2 / II: Decanoyl-Arg-Arg-Cys-NH2; disulfide I:3-II:3) | 16 µg/mL (≈ 13.7 µM) | >256 (−/−) µg/mL | 2 µg/mL (≈ 1.71 µM) | 8 µg/mL (≈ 6.83 µM) | 2 µg/mL (≈ 1.71 µM) | 128 µg/mL (≈ 109 µM) | 8 µg/mL | 512 µg/mL | 256 µg/mL | 512 µg/mL | 32 µg/mL | 4 µg/mL | 512 µg/mL | 32 µg/mL | 256 µg/mL | 13.94 min | 0.21 min |
| CCCCCCC(CCCC)C(=O)N[C@@H](CCCNC(=N)N)C(=O)N[C@@H](CCCNC(=N)N)C(=O)NCCCC[C@H](NC(=O)[C@H](CCCNC(=N)N)NC(=O)[C@H](CCCNC(=N)N)NC(=O)C(CCCC)CCCCCC)C(N)=O (stereo partly shown) [Compound B7] | 32 µg/mL (≈ 28.2 µM) | 32 µg/mL (≈ 28.2 µM) | 1 µg/mL (≈ 0.881 µM) | 4 µg/mL (≈ 3.53 µM) | 1 µg/mL (≈ 0.881 µM) | 16 µg/mL (≈ 14.1 µM) | 4 µg/mL | 256 µg/mL | 64 µg/mL | 128 µg/mL | 64 µg/mL | 8 µg/mL | 256 µg/mL | 8 µg/mL | 64 µg/mL | 14.68 min | – |
| CCCCCCCC(=O)N[C@@H](CCCC)C(=O)N[C@@H](CCCNC(=N)N)C(=O)N[C@@H](CCCNC(=N)N)C(=O)NCCCC[C@H](NC(=O)[C@H](CCCNC(=N)N)NC(=O)[C@H](CCCNC(=N)N)NC(=O)[C@H](CCCC)NC(=O)CCCCCCC)C(N)=O [Compound B6] (Octanoyl-[Nle]RRK([Arg-Arg-Nle-Octanoyl])-NH2) | 32 µg/mL (≈ 25.6 µM) | 64 µg/mL (≈ 51.3 µM) | 2 µg/mL (≈ 1.6 µM) | 4 µg/mL (≈ 3.2 µM) | 2 µg/mL (≈ 1.6 µM) | 256 (−/−) µg/mL | 4 µg/mL | 512 µg/mL | 256 µg/mL | 256 µg/mL | 256 µg/mL | 8 µg/mL | 256 µg/mL | 16 µg/mL | 256 µg/mL | 13.96 min | – |
| CCCCCCC(CCCC)C(=O)N[C@@H](CCCNC(=N)N)C(=O)N[C@@H](CCCNC(=N)N)C(=O)N[C@@H](CSSC[C@H](NC(=O)[C@H](CCCNC(=N)N)NC(=O)[C@H](CCCNC(=N)N)NC(=O)C(CCCC)CCCCCC)C(N)=O)C(N)=O (stereo partly shown) [Compound C7] | 32 µg/mL (≈ 26.1 µM) | 32 µg/mL (≈ 26.1 µM) | 2 µg/mL (≈ 1.63 µM) | 4 µg/mL (≈ 3.26 µM) | 2 µg/mL (≈ 1.63 µM) | 16 µg/mL (≈ 13 µM) | 8 µg/mL | 128 µg/mL | 256 µg/mL | 256 µg/mL | 64 µg/mL | 4 µg/mL | 512 µg/mL | 32 µg/mL | 128 µg/mL | 14.83 min | 0.15 min |
| CCCCCCCCCCCC(=O)N[C@@H](CCCNC(=N)N)C(=O)N[C@@H](CCCNC(=N)N)C(=O)NCCCC[C@H](NC(=O)[C@H](CCCNC(=N)N)NC(=O)[C@H](CCCNC(=N)N)NC(=O)CCCCCCCCCCC)C(N)=O [Compound B3] (Lauroyl-Arg-Arg-Lys([Arg-Arg-Lauroyl])-NH2) | 8 µg/mL (≈ 7.05 µM) | 64 µg/mL (≈ 56.4 µM) | 2 µg/mL (≈ 1.76 µM) | 4 µg/mL (≈ 3.53 µM) | 4 µg/mL (≈ 3.53 µM) | 32 µg/mL (≈ 28.2 µM) | 16 µg/mL | 64 µg/mL | 256 µg/mL | 128 µg/mL | 32 µg/mL | 16 µg/mL | 512 µg/mL | 64 µg/mL | 128 µg/mL | 19.09 min | – |
